Reference: publication PMC10786919, “Design-rules for stapled peptides with in vivo activity and their application to Mdm2/X antagonists” (Nature Communications, 2024)
pEC50, pKd: −log10 of the molar value. In brackets after ≈: the same amount, converted by molar mass. Read-outs that look alike come from different tables or passages of the source. Positions of bridges follow the written chain, without caps; N, C: chain ends. Non-standard residues stand in square brackets, D forms with d. Residues, ends and D or L forms follow the SMILES beside them. Lys(N3) = [N-]=[N+]=NCCCC[C@H](N)C(=O)O; R8 = C=CCCCCCC[C@@](C)(N)C(=O)O; Cba = N[C@@H](CC1CCC1)C(=O)O; S5 = C=CCCC[C@](C)(N)C(=O)O; βAla = NCCC(=O)O

Experiments:
[1] = tested on: Jump-In T-REx CHO-K1 BLA cells; assay: cells; format: cell-based; details: for pEC50: read-out: TETCHO: Counterscreen EC50
Ca Ski cell line = details: Ca Ski
Summary of the method: (§1)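 Compound dilution series (10 points, 3-fold, 10 mM top stock in DMSO) tested on overnight-plated Ca Ski cells in RPMI1640/10% FBS and on blasticidin-selected p53RE-bla HCT-116 cells in McCoy's 5A; read-out was CellTiter-Glo 2.0 luminescence after room-temperature equilibration.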

[2] = tested on: CellSensor p53RE-bla HCT-116 Cell Line; details: read-out: Proliferation EC50 HCT116 (On-target); HCT116
Summary of the method: as §1

[3] = tested on: cells transiently transfected with the NanoLuc-HaloTag vector; assay: Nanoclick permeability assay; details: 4Hr
Summary of the method: (§2)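 Azido-peptide permeability was read as loss of NanoBRET signal (donor 450 nm, acceptor 610 nm) after adding NanoBret618-azide at 10 μM final.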

[4] = Solubility assay (kinetic solubility, PBS pH 7); format: physicochemical; details: for solubility kinetic: read-out: Solubility
Summary of the method: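 Values derive from peak-area ratios of sample versus a 100 µM standard, scaled by that standard's concentration.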

HCT116 cells = assay: Lactate dehydrogenase (LDH) release assay; format: cell-based
Summary of the method: (§3)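 HCT116 cells stably carrying a p53-responsive β-lactamase reporter were seeded at 8000 cells per well with a final DMSO level of 0.5%. Membrane integrity was assessed by lactate dehydrogenase release using a homogeneous fluorometric kit. Values are geometric means of at least three biological replicates.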

[5] = tested on: p53 responsive β-lactamase reporter in HCT116 cells; assay: cells; format: cell-based
Summary of the method: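 HCT116 cells stably carrying a p53-responsive β-lactamase reporter, seeded at 8000 cells/well, with 0.5% DMSO final. Reporter activity read by ToxBLAzer Dual Screen. Values are geometric means of at least three biological replicates.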

in vitro = details: Nanoclick permeability assay EC50
Summary of the method: as §2

[6] = Experimental LogD (partition coefficient); details: for logD: not stated, Partition Coeff LogD
[7] = Lactate dehydrogenase (LDH) release assay; format: cell-based
Summary of the method: as §3

human Mdm2 1–125 = biological target: T1, human Mdm2 1–125 (Homo sapiens, UniProt Q00987); assay: Mdm2 binding by competitive fluorescence anisotropy assay (FP binding); details: read-out: FP binding assay KD
T1 construct: GST (N); His6 (internal); TEV cleavage site (ENLYFQG) (internal); made in house; host or cells: BL21 (DE3) Rosetta T1R Escherichia coli
Source text: The TEV (tobacco etch virus) cleavage site was changed from ENLYFQS to ENLYFQG to give a fusion protein with the following sequence:
[P] is the protein concentration (Mdm2), [L] is the labeled peptide concentration, r is the anisotropy measured, r0 is the anisotropy of the free peptide, rb is the anisotropy of the Mdm2–FAM-labeled peptide complex, Kd is the dissociation constant, [L]t is the total FAM labeled peptide concentration, and [P]t is the total Mdm2 concentration. […] This value was then used to determine apparent Kd values of the respective competing ligands in subsequent competition assays in fluorescence anisotropy experiments.
The competing molecules were then titrated against the complex of the FAM-labeled peptide and protein. Apparent Kd values were determined by fitting the experimental data to equations shown below:2 r=ro+(rb−ro)×2(d^2−3e)cos(θ/3)−9/3Kd1+2(d^2−3e)cos(θ/3)−d 3 d=Kd1+Kd2+[L]st+[L]t−Pt 4 e=Lt−PtKd1+Lst+PtKd2+Kd1Kd2 5 f=−Kd1Kd2[P]t 6 θ=arcos−2d^3+9de−27f/2(d^2−3e)^3
[L]st and [L]t denote labeled ligand and total unlabeled ligand input concentrations, respectively. Kd2 is the dissociation constant of the interaction between the unlabeled ligand and the protein. In all competition experiments, it is assumed that [P]t > [L]st, otherwise considerable amounts of free labeled ligand would always be present and would interfere with measurements. […] The FAM-labeled peptide was dissolved in dimethyl sulfoxide (DMSO) at 1 mM and diluted into experimental buffer. Readings were carried out with an Envision Multilabel Reader (PerkinElmer). […] Curve-fitting was carried out using Prism 4.0 (GraphPad). […] Negative control titrations of the ligands under investigation were also carried out with the fluorescently labeled peptide (in the absence of Mdm2) to ensure no interactions were occurring between the ligands and the FAM-labeled peptide. […] Measurements were taken a minimum of three times (biological replicates) and values are reported as geometric means of the replicates.

EPSA = format: physicochemical
[8] = pH 7, aqueous buffer, kinetic from dmso stock, pH 7, PBS
[9] = 0% FBS 4Hr, read-out: p53 reporter assay: EC50
[10] = 10% FBS 4Hr, read-out: p53 reporter assay: EC50
[11] = 10% FBS 16Hr, read-out: p53 reporter assay: EC50

T1 sequence (Q00987 with tags, fused parts or gaps): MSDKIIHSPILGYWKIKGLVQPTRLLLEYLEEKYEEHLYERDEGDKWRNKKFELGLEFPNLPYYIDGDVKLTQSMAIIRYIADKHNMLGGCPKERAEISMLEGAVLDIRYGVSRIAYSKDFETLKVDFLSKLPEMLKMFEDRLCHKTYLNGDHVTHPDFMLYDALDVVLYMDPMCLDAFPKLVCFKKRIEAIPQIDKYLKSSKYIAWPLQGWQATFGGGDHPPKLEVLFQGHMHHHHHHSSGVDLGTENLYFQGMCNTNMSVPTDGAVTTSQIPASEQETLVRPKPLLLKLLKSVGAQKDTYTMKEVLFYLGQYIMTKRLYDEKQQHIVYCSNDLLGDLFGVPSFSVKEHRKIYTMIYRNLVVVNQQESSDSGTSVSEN

SMILES | TETCHO: Counterscreen % Effect ([1]; 0% FBS 4Hr) [%] | TETCHO: Counterscreen % Effect ([1]; 0% FBS 16Hr) [%] | TETCHO: Counterscreen % Effect ([1]; 10% FBS 16Hr) [%] | Nanoclick permeability assay % Effect [3] [%] | pEC50 ([1]; 0% FBS 4Hr) | cell entry EC50 (in vitro) [µM] | logD [6] | solubility kinetic [4, 8] [µM] | pKd (human Mdm2 1–125) | TETCHO: Counterscreen % Effect ([1]; 10% FBS 4Hr) [%] | pEC50 ([1]; 10% FBS 4Hr) | pEC50 ([1]; 10% FBS 16Hr) | pEC50 ([7]; LDH: Cytotoxicity assay: EC50) | p53 reporter assay: % Effect ([5]; 0% FBS 4Hr) [%] | pEC50 [5, 9] | p53 reporter assay: % Effect ([5]; 10% FBS 4Hr) [%] | pEC50 [5, 10] | p53 reporter assay: % Effect ([5]; 10% FBS 16Hr) [%] | pEC50 [5, 11] | pEC50 (HCT116 cells) | other results
CC(=O)N[C@@H](CCCCN=[N+]=[N-])C(=O)NCCC(=O)N[C@@H](CC(C)C)C(=O)N[C@H](C(=O)N[C@@H](Cc1ccccc1)C(=O)N[C@]1(C)CCCCCCC=CCCC[C@@](C)(C(=O)N[C@@H](CCC(=O)O)C(=O)N[C@@H](C)C(=O)N[C@@H](C)C(=O)N[C@@H](C)C(=O)N[C@@H](C)C(=O)N[C@H](C)C(N)=O)NC(=O)[C@H](CC2CCC2)NC(=O)[C@H](CCC(N)=O)NC(=O)[C@H](C)NC(=O)[C@H](Cc2c[nH]c3ccccc23)NC(=O)[C@H](Cc2ccc(O)cc2)NC(=O)[C@H](CCC(=O)O)NC1=O)[C@@H](C)O [MP-834, Ac-K(N3)-(betaAla)-LTF-(R8)-EYWAQ-(Cba)-(S5)-EAAAA-(D-Ala)-NH2] (Ac-[Lys(N3)][βAla]LTF[R8]EYWAQ[Cba][S5]EAAAA[dA]-NH2; staple 6-13) | -4.911 | -7.249 | -13.19 | 121.4 |  |  |  |  |  |  |  |  |  |  |  |  |  |  |  |  | Proliferation % inhibition at 50 µM Ca Ski (Ca Ski cell line; 50 µM): -3.2%; pEC50 (Ca Ski cell line; read-out: Proliferation EC50 Ca Ski (Off-target)): < 4.30; pEC50 [2]: 5.85; solubility kinetic [4]: 167 µM (≈ 372 µg/mL); LDH: Cytotoxicity assay % Effect (HCT116 cells; 0% FBS 4Hr): 6.58%; LDH: Cytotoxicity assay % Effect (HCT116 cells; 10% FBS 16Hr): 9.756%; p53 reporter assay % Effect ([5]; 0% FBS 4Hr): 103.2%; p53 reporter assay % Effect ([5]; 10% FBS 16Hr): 95.7%; pEC50 ([5]; read-out: Cell EC50 (4 hr, 0% FBS), p53 reporter assay, 4 hr, 0% FBS): 6.00; pEC50 ([5]; read-out: Cell EC50 (16 hr, 10% FBS), p53 reporter assay, 16 hr, 10% FBS): 5.47
CC(C)C[C@H](NC(=O)CCNC(=O)[C@H](CCCCN=[N+]=[N-])NC(=O)CNC(=O)[C@H](CC(=O)O)NC(=O)[C@H](CC(C)C)NC(=O)[C@H](CCCCN)NC(=O)[C@@H](NC(=O)[C@H](CCCNC(=N)N)NC(=O)[C@H](CCCCN)NC(=O)[C@H](C)NC(=O)[C@H](C)NC(=O)[C@@H]1CCCN1)C(C)C)C(=O)N[C@H](C(=O)N[C@@H](Cc1ccccc1)C(=O)N[C@]1(C)CCCCCCC=CCCC[C@@](C)(C(=O)N[C@@H](CO)C(=O)N[C@@H](C)C(=O)N[C@@H](C)C(N)=O)NC(=O)[C@H](CC2CCC2)NC(=O)[C@H](CCC(N)=O)NC(=O)[C@H](C)NC(=O)[C@H](Cc2c[nH]c3ccccc23)NC(=O)[C@H](Cc2ccc(O)cc2)NC(=O)[C@H](CCC(=O)O)NC1=O)[C@@H](C)O [MP-879] (H-PAAKRVKLDG[Lys(N3)][βAla]LTF[R8]EYWAQ[Cba][S5]SAA-NH2; staple 16-23) | 42.86 | 28.78 |  | 134.8 | 4.45 | 0.555 | 2.38 | 162 (≈ 480 µg/mL) | 7.41 |  |  |  |  |  |  |  |  |  |  |  | pEC50 ([1]; 0% FBS 16Hr): < 4.30; pEC50 ([7]; LDH: Cytotoxicity assay EC50): < 4.30; pEC50 ([5]; 0% FBS 4Hr, read-out: p53 reporter assay EC50): 5.62; pEC50 ([5]; 0% FBS 16Hr, read-out: p53 reporter assay EC50): 5.94
CC(=O)N[C@@H](CCCCN)C(=O)NCCCCCC(=O)N[C@H](C(=O)N[C@@H](CO)C(=O)N[C@@H](Cc1ccccc1)C(=O)N[C@]1(C)CCCCCCC=CCCC[C@@](C)(C(N)=O)NC(=O)[C@H](CC(C)C)NC(=O)[C@H](CC(C)C)NC(=O)[C@H](C)NC(=O)[C@H](Cc2c[nH]c3ccccc23)NC(=O)[C@H](Cc2ccc(O)cc2)NC(=O)[C@H](CCC(=O)O)NC1=O)[C@@H](C)O [MP-716] | 43.21 |  | 13.83 | 9.756 | < 4.30 | > 10 |  |  | 7.96 | 45.82 | < 4.30 | < 4.30 | < 4.29 | 93.75 | 4.85 | 161.5 | 4.80 | 18.31 | < 4.30 |  | Partition Coeff LogD [6]: Poorly Behaved; Solubility ([4]; pH 7, PBS): Poorly Behaved
CC(=O)N[C@H](C(=O)N[C@@H](CO)C(=O)N[C@@H](Cc1ccccc1)C(=O)N[C@]1(C)CCCCCCC=CCCC[C@@](C)(C(N)=O)NC(=O)[C@H](CC(C)C)NC(=O)[C@H](CC(C)C)NC(=O)[C@H](C)NC(=O)[C@H](Cc2c[nH]c3ccccc23)NC(=O)[C@H](Cc2ccc(O)cc2)NC(=O)[C@H](CCC(=O)O)NC1=O)[C@@H](C)O [MP-090] | 137.4 |  | 108.5 | 42.09 | 4.67 | > 10 | 2.69 | 77 (≈ 113 µg/mL) |  | 106.1 | 4.50 | 4.48 | < 4.29 | 110.7 | 5.19 | 88.51 | 4.58 | 4.432 | < 4.30 | 4.30 | EPSA (EPSA; EPSA): 201 A^2
CC(=O)N[C@@H](CCCCN)C(=O)NCCCCCC(=O)N[C@H](C(=O)N[C@@H](CO)C(=O)N[C@@H](Cc1ccccc1)C(=O)N[C@]1(C)CCCCCCC=CCCC[C@@](C)(C(=O)N[C@@H](CCC(=O)O)C(=O)N[C@@H](CC(N)=O)C(=O)N[C@@H](Cc2ccccc2)C(N)=O)NC(=O)[C@H](CC(C)C)NC(=O)[C@H](CC(C)C)NC(=O)[C@H](C)NC(=O)[C@H](Cc2c[nH]c3ccccc23)NC(=O)[C@H](Cc2ccc(O)cc2)NC(=O)[C@H](CCC(=O)O)NC1=O)[C@@H](C)O [MP-82094] | 52.98 |  | 82.5 | 69.87 | 4.34 |  |  |  |  | 49.08 | 4.70 | 5.15 |  | 109.5 | 5.81 | 125.5 | 5.41 | 78.69 | 4.79 | 4.30 | EPSA (EPSA): Poorly Behaved
